Results on 1 compound are retold here after patent US12329745B2, “Methods and compositions for treating glucocorticoid excess” (Sparrow Pharmaceuticals, Inc., priority 2022, dated 2025).

Like-named read-outs stand apart in the source and are kept apart here.

The data set can be described thus: Human plasma pharmacokinetics of SPI-62. The data set is classed as in vivo. Particulars: for Cmax: human, plasma, oral. As to the method:
The single- and multiple-dose pharmacokinetics of SPI-62 were well-characterized by a two-compartment TMDD population pharmacokinetics model with 3 transit absorption compartments and an estimated target capacity of ˜2.5 mg of SPI-62 which comports well with the dose range in which pharmacokinetic nonlinearity is prominent.

Consider `Cn1c(-c2ccc(C(N)=O)cc2F)nnc1C(C)(C)Oc1c(F)cc(Cl)cc1F` [SPI-62, 4-(5-(2-(4-chloro-2,6-difluorophenoxy)propan-2-yl)-4-methyl-4H-1,2,4-triazol-3-yl)-3-fluorobenzamide], for which the “unbound concentration corresponding to Cmax” value is on record as < 0.25 nM (0.2 mg daily for 14 days) and < 0.012 nM (single dose 1 mg). In addition, the “plasma levels after 14 days of dosing, dose proportionality” value (doses of 0.2 to 50 mg) is on record as “approximately dose-proportional”. Further, the Cmax reads like this: (0.2 mg, 0.2 mg daily for 14 days, last dosing day, read-out: mean maximum plasma drug concentration (Cmax)) < 1 ng/mL; (1 mg, single dose 1 mg, read-out: mean Cmax) < 0.05 ng/mL; (multiple doses 0.2 to 50 mg, read-out: Cmax means) 1 to 835 ng/mL; (single doses of 6 to 60 mg, read-out: Cmax means) 28 to 595 ng/mL. Also, under “single 1 mg dose”, the “plasma drug levels (all below the LLOQ)” value was < 0.1 ng/mL. In addition, the “plasma exposures after single doses, dose proportionality” value (single doses, 0.7 to 3 mg much lower dose-normalized levels) is recorded as “substantial non-linearity”. In addition, the estimated target capacity (two-compartment TMDD population pharmacokinetics model) was ~2.5 mg.
